Source: ChEMBL document CHEMBL1201862, “PubChem BioAssay data set” (2004)
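Following 48 hours of exposure in 96-well plates, responses at five concentrations were used to interpolate endpoints linearly. GI50 marks 50% less growth.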 Calls of active or inactive are those of the source. Rule as the data show it: active = GI50 up to about 1.1 µM and inactive = higher.

What was measured:
Experiment in all cases: NCI anticancer screen, dose series, 48 h
OVCAR-3 = test system: OVCAR-3
PC-3 = test system: PC-3
Malme-3M = test system: Malme-3M
U-251 = test system: U-251
EKVX = test system: EKVX
TK-10 = test system: TK-10
K562 = test system: K562
SF-539 = test system: SF-539
T47D = test system: T47D
SK-MEL-28 = test system: SK-MEL-28
OVCAR-8 = test system: OVCAR-8
SNB-75 = test system: SNB-75
HOP-62 = test system: HOP-62
ACHN = test system: ACHN
OVCAR-5 = test system: OVCAR-5
RXF 393 = test system: RXF 393
HL-60 = test system: HL-60
RPMI-8226 = test system: RPMI-8226
COLO 205 = test system: COLO 205
SNB-19 = test system: SNB-19
HCT-15 = test system: HCT-15
HOP-92 = test system: HOP-92
HCC 2998 = test system: HCC 2998
SF-295 = test system: SF-295
MOLT-4 = test system: MOLT-4
NCI-H460 = test system: NCI-H460
NCI/ADR-RES = test system: NCI/ADR-RES
DU-145 = test system: DU-145
Hs-578T = test system: Hs-578T
SR = test system: SR
LOX IMVI = test system: LOX IMVI
CCRF-CEM = test system: CCRF-CEM
UACC-62 = test system: UACC-62
A549 = test system: A549
KM12 = test system: KM12
UO-31 = test system: UO-31
786-0 = test system: 786-0
M14 = test system: M14
HT-29 = test system: HT-29
SF-268 = test system: SF-268
MDA-MB-231 = test system: MDA-MB-231
MDA-MB-435 = test system: MDA-MB-435
CAKI-1 = test system: CAKI-1
BT-549 = test system: BT-549
SW-620 = test system: SW-620
MDA-N = test system: MDA-N
SK-OV-3 = test system: SK-OV-3
HCT-116 = test system: HCT-116
MCF7 = test system: MCF7
SN12C = test system: SN12C
NCI-H23 = test system: NCI-H23
IGROV-1 = test system: IGROV-1
A498 = test system: A498
OVCAR-4 = test system: OVCAR-4
NCI-H226 = test system: NCI-H226
SK-MEL-2 = test system: SK-MEL-2
NCI-H522 = test system: NCI-H522
UACC-257 = test system: UACC-257
SK-MEL-5 = test system: SK-MEL-5

Measured: GI50

CC1=NN(C(=O)CC(=O)NC(=O)/C=C\c2ccccc2)C(=O)C1/N=N/c1ccc([N+](=O)[O-])cc1 (stereo not drawn)
inactive: OVCAR-3 50.7 µM | PC-3 > 100 µM | Malme-3M > 100 µM | U-251 35.3 µM | EKVX 46.9 µM | TK-10 48.5 µM | K562 53.2 µM | SF-539 > 100 µM | T47D > 100 µM | SK-MEL-28 > 100 µM | OVCAR-8 > 100 µM | SNB-75 52.4 µM | HOP-62 > 100 µM | ACHN 37.4 µM | OVCAR-5 > 100 µM | RXF 393 > 100 µM | HL-60 > 100 µM | RPMI-8226 85.5 µM | COLO 205 > 100 µM | SNB-19 > 100 µM | HOP-92 38.3 µM | HCC 2998 > 100 µM | SF-295 53.6 µM | MOLT-4 60.1 µM | NCI-H460 > 100 µM | NCI/ADR-RES > 100 µM | DU-145 55.7 µM | Hs-578T 44 µM | SR > 10 µM | LOX IMVI > 100 µM | CCRF-CEM 42 µM | UACC-62 24.3 µM | A549 84.5 µM | KM12 30 µM | UO-31 48 µM | 786-0 83.8 µM | M14 > 100 µM | HT-29 > 100 µM | SF-268 > 100 µM | MDA-MB-231 > 100 µM | MDA-MB-435 > 100 µM | CAKI-1 30.6 µM | BT-549 19.1 µM | SW-620 > 100 µM | MDA-N > 100 µM | SK-OV-3 > 100 µM | HCT-116 35.6 µM | MCF7 > 100 µM | SN12C > 100 µM | NCI-H23 40.2 µM | IGROV-1 58.3 µM | A498 20.5 µM
> 100 µM: HCT-15

CN(CCCNC(=O)c1cn(C)c2c1ccc1cc(Cl)c(Cl)cc12)CCCNC(=O)c1cn(C)c2c1ccc1cc(Cl)c(Cl)cc12
active: OVCAR-4 0.789 µM
inactive: OVCAR-3 18.2 µM | PC-3 13.3 µM | Malme-3M 17.1 µM | U-251 3.03 µM | EKVX 15.4 µM | TK-10 17.5 µM | K562 5.41 µM | SF-539 15.7 µM | T47D 13.7 µM | SK-MEL-28 18.5 µM | NCI-H226 22.1 µM | OVCAR-8 14.8 µM | SNB-75 10.8 µM | SK-MEL-2 16.7 µM | NCI-H522 14.6 µM | HOP-62 14.3 µM | ACHN 13.1 µM | OVCAR-5 16.4 µM | RXF 393 4.42 µM | HL-60 2.47 µM | UACC-257 19.3 µM | COLO 205 3.18 µM | SK-MEL-5 14.7 µM | SNB-19 7 µM | HOP-92 11.6 µM | HCC 2998 4 µM | SF-295 17.1 µM | MOLT-4 10.4 µM | NCI-H460 3.97 µM | NCI/ADR-RES 15.2 µM | DU-145 15.3 µM | Hs-578T 8.73 µM | SR 4.57 µM | LOX IMVI 5.74 µM | CCRF-CEM 8.53 µM | UACC-62 16.1 µM | A549 11 µM | KM12 5.31 µM | UO-31 16.7 µM | 786-0 6.27 µM | M14 10.7 µM | HT-29 14.8 µM | SF-268 13.7 µM | MDA-MB-231 15.4 µM | MDA-MB-435 6.17 µM | CAKI-1 11.6 µM | BT-549 15.6 µM | SW-620 4.19 µM | MDA-N 15.9 µM | SK-OV-3 15.2 µM | HCT-116 12.2 µM | MCF7 5.16 µM | SN12C 13.6 µM | NCI-H23 14.6 µM | IGROV-1 7.62 µM | A498 12.9 µM
11.9 µM: HCT-15

CN(C)/C=N/c1ccc2[nH]c3ccccc3c2c1
inactive: OVCAR-3 > 100 µM | PC-3 36.1 µM | Malme-3M 22.1 µM | U-251 28.8 µM | OVCAR-4 > 100 µM | EKVX 65 µM | TK-10 28.2 µM | K562 20.4 µM | SF-539 20.8 µM | T47D 30.6 µM | SK-MEL-28 23.3 µM | NCI-H226 27.4 µM | OVCAR-8 37.7 µM | SNB-75 37.7 µM | SK-MEL-2 16.7 µM | HOP-62 23.2 µM | ACHN 48.1 µM | OVCAR-5 28.4 µM | RXF 393 25.8 µM | HL-60 18.1 µM | UACC-257 15.9 µM | RPMI-8226 22.6 µM | COLO 205 16.6 µM | SK-MEL-5 16.7 µM | SNB-19 > 100 µM | HOP-92 15.8 µM | SF-295 31.3 µM | MOLT-4 27.3 µM | NCI/ADR-RES 53.7 µM | DU-145 > 100 µM | Hs-578T 38.5 µM | SR 12.2 µM | LOX IMVI 15.7 µM | CCRF-CEM 30.9 µM | UACC-62 21 µM | A549 39.7 µM | UO-31 29 µM | 786-0 25.1 µM | M14 15.1 µM | HT-29 19.8 µM | SF-268 64.6 µM | MDA-MB-231 19.8 µM | MDA-MB-435 18 µM | CAKI-1 35.2 µM | BT-549 > 100 µM | MDA-N 18.2 µM | SK-OV-3 61.7 µM | HCT-116 34.6 µM | MCF7 32.1 µM | SN12C 52.4 µM | NCI-H23 49.3 µM | IGROV-1 43.5 µM | A498 20.9 µM
20.6 µM: HCT-15

Cn1c2cn[nH]c(=O)c2c2ccc3ccccc3c21
23.9 µM: HCT-15
inactive: OVCAR-3 > 100 µM | PC-3 51.2 µM | Malme-3M > 100 µM | U-251 19.9 µM | OVCAR-4 58.1 µM | EKVX 3.6 µM | TK-10 49.8 µM | K562 86.1 µM | SF-539 48.4 µM | T47D > 100 µM | NCI-H226 36.1 µM | OVCAR-8 41.6 µM | SNB-75 16.1 µM | SK-MEL-2 18.2 µM | NCI-H522 16.9 µM | HOP-62 13.1 µM | ACHN 16.9 µM | OVCAR-5 > 100 µM | RXF 393 19.3 µM | HL-60 85.5 µM | UACC-257 > 100 µM | RPMI-8226 60.3 µM | COLO 205 23.9 µM | SK-MEL-5 31.5 µM | SNB-19 26.5 µM | HOP-92 10.6 µM | SF-295 18.9 µM | MOLT-4 27.2 µM | NCI-H460 20 µM | NCI/ADR-RES 84.1 µM | DU-145 59.3 µM | Hs-578T 11.9 µM | SR 35.9 µM | LOX IMVI 21.9 µM | CCRF-CEM 59.2 µM | UACC-62 22.4 µM | A549 27.7 µM | KM12 > 100 µM | UO-31 16.1 µM | 786-0 7.62 µM | M14 > 100 µM | HT-29 37.3 µM | SF-268 22.6 µM | MDA-MB-231 15.4 µM | MDA-MB-435 69.7 µM | CAKI-1 42.4 µM | BT-549 42.9 µM | SW-620 52.6 µM | MDA-N > 100 µM | SK-OV-3 28.8 µM | HCT-116 29 µM | MCF7 30.2 µM | SN12C 44.6 µM | NCI-H23 21.6 µM | IGROV-1 11.7 µM | A498 9.04 µM

CCOC(=O)C(O)Cc1cnc2ccccc2n1 (stereo not drawn)
> 100 µM: HCT-15
inactive: OVCAR-3 > 100 µM | PC-3 > 100 µM | Malme-3M > 100 µM | U-251 > 100 µM | OVCAR-4 > 100 µM | EKVX 73.5 µM | TK-10 > 100 µM | K562 > 100 µM | SF-539 > 100 µM | T47D > 100 µM | SK-MEL-28 > 100 µM | OVCAR-8 > 100 µM | SNB-75 > 100 µM | SK-MEL-2 > 100 µM | NCI-H522 79.3 µM | HOP-62 > 100 µM | ACHN > 100 µM | OVCAR-5 > 100 µM | RXF 393 > 100 µM | UACC-257 > 100 µM | RPMI-8226 > 100 µM | COLO 205 > 100 µM | SK-MEL-5 > 100 µM | SNB-19 > 100 µM | HOP-92 > 100 µM | HCC 2998 > 100 µM | MOLT-4 > 100 µM | NCI-H460 92.3 µM | NCI/ADR-RES > 100 µM | DU-145 > 100 µM | Hs-578T > 100 µM | SR > 100 µM | LOX IMVI > 100 µM | CCRF-CEM 44.9 µM | UACC-62 > 100 µM | A549 > 100 µM | KM12 > 100 µM | UO-31 > 100 µM | 786-0 > 100 µM | M14 > 100 µM | HT-29 > 100 µM | SF-268 > 100 µM | MDA-MB-231 > 100 µM | MDA-MB-435 > 100 µM | CAKI-1 > 100 µM | BT-549 > 100 µM | SW-620 > 100 µM | MDA-N > 100 µM | SK-OV-3 > 100 µM | HCT-116 > 100 µM | MCF7 80.7 µM | SN12C > 100 µM | NCI-H23 > 100 µM | IGROV-1 94.2 µM | A498 > 100 µM
